Measurements published in publication PMC3625562, “Rapid Screening of Drug-Protein Binding Using High-Performance Affinity Chromatography with Columns Containing Immobilized Human Serum Albumin” (Journal of Analytical Methods in Chemistry, 2013).
Counter-ions that a name gives are not always drawn. Like-named read-outs stand apart in the source and are kept apart here. Non-standard residues stand in square brackets, D forms with d. Residues, ends and D or L forms follow the SMILES beside them. Phe(4-Cl) = N[CH](Cc1ccc(Cl)cc1)C(=O)O; 2Nal = N[CH](Cc1ccc2ccccc2c1)C(=O)O; 3Pal = N[CH](Cc1cccnc1)C(=O)O

Legend:
plasma proteins [1] = details: cited from earlier work
[2] = target: T1, immobilized human serum albumin (HSA) (Homo sapiens, UniProt P02768); assay: Drug-protein binding screening by HPLC on immobilized HSA column (HSA-HPLC); details: 0.5 mL/min
Description: (§1) Compounds were dissolved with water or water-ethanol (with different ratio) to a concentration of 100 µg/mL. The chromatographic peak was attained on a 5 μm Chiral-HSA, 50 × 3 mm column (Chrom Tech, France), which was preceded by an on-line filter. The ChemStation for LC 3D software was used for data acquiring and handling. As a generic rapid method, an isocratic mobile phase was selected. To simulate physiology environment, a mobile phase consisting of 0.9% NaCl (pH 7.0) at a flow rate of 0.5 mL/min was used. 10 µL aliquot of analyte solution was injected to HPLC to be analyzed.

[3] = target: T1, immobilized human serum albumin (HSA); details: pH 7
Description: as §1

plasma proteins [4] = assay: in vitro
Description: (§2) PPB Experiment for Test Compounds by Ultrafiltration
(§3) The stock solution (1.0 or 2 mg/mL) of test compounds was prepared by dissolving appropriate amount of compounds in water-methanol (50 : 50, v/v) mixture. Working solution (1, 10 or 100 μg/mL) was attained by diluted stock solution with water. A different volume of the working solution was added to a 2 mL eppendorf vial and evaporated to dryness under a stream of nitrogen in the thermostatically controlled water bath maintained at 55°C for about 20 min. […] The mixture was incubated at 37°C for 30 min. […] The filtrate was analyzed for the drug content by HPLC-MS.
(§4) The concentration of the filtrate was analyzed by HPLC-MS. […] The PPB by ultrafiltration was performed in triplicates for all the compounds studied.

plasma proteins [5] = assay: PPB experiment by ultrafiltration; details: plasma, 10, 40, 200, 100, 2000, 100 ng/mL for A, B, C, D, E, F, 37°C 30 min, Microcon YM-30, triplicates; for fraction unbound at 30 min: plasma, PPB by ultrafiltration
Description: as §2, §3, §4

[6] = target: human serum albumin (HSA) (Homo sapiens, UniProt P02768); assay: Drug-protein binding screening by HPLC on immobilized HSA column (HSA-HPLC); details: human, pH 7
Description: as §1

[7] = reported PPB values of reference compounds, ref not printed
[8] = reference compounds, Chiral-HSA 50 × 3 mm column, mobile phase 0.9% NaCl (pH 7.0), 100 µg/mL, 10 µL injected
[9] = test compounds, Chiral-HSA column, 0.9% NaCl (pH 7.0)

T1 sequence (P02768 25-609): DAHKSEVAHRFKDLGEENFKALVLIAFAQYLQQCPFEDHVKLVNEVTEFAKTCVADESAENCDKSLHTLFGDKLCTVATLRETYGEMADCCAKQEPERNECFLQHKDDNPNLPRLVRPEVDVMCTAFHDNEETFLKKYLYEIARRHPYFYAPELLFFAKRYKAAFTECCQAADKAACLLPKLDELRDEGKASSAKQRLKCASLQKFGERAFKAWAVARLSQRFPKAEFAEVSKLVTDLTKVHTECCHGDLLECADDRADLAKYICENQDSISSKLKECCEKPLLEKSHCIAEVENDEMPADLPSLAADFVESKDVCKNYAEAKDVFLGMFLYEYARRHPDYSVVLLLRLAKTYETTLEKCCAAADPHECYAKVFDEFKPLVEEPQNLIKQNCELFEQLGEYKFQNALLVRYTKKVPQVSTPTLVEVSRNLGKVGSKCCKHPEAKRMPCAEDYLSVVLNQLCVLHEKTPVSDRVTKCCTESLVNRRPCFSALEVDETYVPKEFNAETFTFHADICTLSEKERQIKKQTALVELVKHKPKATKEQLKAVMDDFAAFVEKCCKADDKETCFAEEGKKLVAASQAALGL
human serum albumin (HSA), sequence (P02768 25-609): as above

Compound | PPB from literature (plasma proteins [1]; [7]) | Retention time [2, 8] | further results
NS(=O)(=O)c1cc2c(cc1C(F)(F)F)NC(Cc1ccccc1)NS2(=O)=O (stereo not shown) [Bendroflumethiazide] | 94.0% | 3.27 min | –
O=C(O)/C=C/c1ccc(O)c(O)c1 [Caffeic acid] | 66.0% | 4.02 min | –
Cn1c(=O)c2c(ncn2C)n(C)c1=O [Caffeine] | 22.5% | 1.18 min | –
Oc1cc(O)c2c(c1)O[C@H](c1ccc(O)c(O)c1)[C@@H](O)C2 [Catechuic acid] | 20.7% | 1.94 min | –
CN(C)CCC(c1ccc(Cl)cc1)c1ccccn1 (stereo not shown) [Chlorphenamine maleate] | 37.5 (25–50) % | 5.93 min | –
Cc1nc(C)c(C)nc1C.Cl [Chuanxiongzine hydrochloride] | 44.3% | – | Retention time [3]: 2.23 min
C[C@@](COC12CCN(CC1)CC2)(c1ccccc1)C1CCCC1 [Comp. A] | – | – | fraction unbound (plasma proteins [4]): 0.218; Retention time ([3]; human, 100 µg/mL): 0.76 min
CC(C)[C@]12O[C@H]1[C@@H]1O[C@]13[C@]1(O[C@H]1C[C@H]1C4=C(CC[C@@]13C)C(=O)OC4)[C@@H]2O [Comp. B] | – | – | fraction unbound at 30 min (plasma proteins [5]): 0.784; Retention time [2, 9]: 1.70 min
CCN(CC)Cc1cc(-c2nc3c(Cl)nnc(OC)c3n2C)ccc1O [Comp. C] | – | – | PPB by ultrafiltration (plasma proteins [5]): 51.0%; fraction unbound at 30 min (plasma proteins [5]): 0.485; Retention time [2, 9]: 1.75 min; fraction unbound at 100 µg/mL [6]: > 0.1
Cc1cc(SCc2cnc(-c3ccc(C(F)(F)F)cc3)nc2)ccc1OCC(=O)O [Comp. E] | – | – | PPB by ultrafiltration (plasma proteins [5]): 99.5%; fraction unbound at 30 min (plasma proteins [5]): 0.005; fraction unbound at 100 µg/mL [6]: < 0.1
CC(=O)NC(Cc1ccc2ccccc2c1)C(=O)NC(Cc1ccc(Cl)cc1)C(=O)NC(Cc1ccccc1)C(=O)NC(CO)C(=O)NC(CCCNC(=N)N)C(=O)NC(Cc1cccnc1)C(=O)NC(CC(C)C)C(=O)NC(CCCNC(=N)N)C(=O)N1CCCC1C(=O)NC(C)C(N)=O (stereo not shown) [Comp. F] (Ac-[2Nal][Phe(4-Cl)]FSR[3Pal]LRPA-NH2; configuration not given here) | – | – | PPB by ultrafiltration (plasma proteins [5]): 97.2%; Retention time [2, 9]: 0.81 min
COc1cc(/C=C/C(=O)O)ccc1O [Ferulic acid] | 20.6% | – | Retention time [3]: 1.79 min
OC(Cn1cncn1)(Cn1cncn1)c1ccc(F)cc1F [Fluconazole] | 11.5 (11-12) % | 1.07 min | –
CC(=O)OCC(=O)[C@@]1(O)CC[C@H]2[C@@H]3CCC4=CC(=O)CC[C@]4(C)[C@H]3[C@@H](O)C[C@@]21C [Hydrocortisone acetate] | 90.0% | 0.73 min | –
CN1CCOC(c2ccccc2)c2ccccc2C1 (stereo not shown) [Nefopam hydrochloride] | 73.5 (71–76) % | 7.87 min | PPB from literature (plasma proteins [1]; reported PPB values of reference compounds, ref not printed, listed as nefopam): 71–76%
CCOc1ccc(NC(C)=O)cc1 [Phenacetin] | 30.0% | 3.19 min | –
O=C1NC(=O)C(c2ccccc2)(c2ccccc2)N1 [Phenytoin sodium] | 90.0% | 15.02 min | –
O=C(C1CCCCC1)N1CC(=O)N2CCc3ccccc3C2C1 (stereo not shown) [Praziquantel] | 80.0% | 12.97 min | –
CC(=O)[C@H]1CC[C@H]2[C@@H]3CCC4=CC(=O)CC[C@]4(C)[C@H]3CC[C@]12C [Progesterone] | – | 50.02 min | PPB from literature (plasma proteins [1]): 97.0%
CC(C)NCC(O)COc1cccc2ccccc12 (stereo not shown) [Propranolol hydrochloride] | 92.5 (90–95) % | 5.21 min | PPB from literature (plasma proteins [1]; reported PPB values of reference compounds, ref not printed, listed as propranolol hydrochloride): 90–95%
O=c1c(O)c(-c2ccc(O)c(O)c2)oc2cc(O)cc(O)c12 [Quercetin] | 98.0% | 0.72 min | –
CNC(=C[N+](=O)[O-])NCCSCc1ccc(CN(C)C)o1 [Ranitidine hydrochloride] | 15.0 (12–18) % | 1.23 min | –
COC(=O)[C@H]1[C@H]2C[C@@H]3c4[nH]c5cc(OC)ccc5c4CCN3C[C@H]2C[C@@H](OC(=O)c2cc(OC)c(OC)c(OC)c2)[C@@H]1OC [Reserpine] | 96.0% | 0.71 min | –
C[C@@H]1O[C@@H](OC[C@H]2O[C@@H](Oc3c(-c4ccc(O)c(O)c4)oc4cc(O)cc(O)c4c3=O)[C@H](O)[C@@H](O)[C@@H]2O)[C@H](O)[C@H](O)[C@H]1O [Rutoside] | 85.0 (80–90) % | 13.43 min | PPB from literature (plasma proteins [1]; reported PPB values of reference compounds, ref not printed, listed as rutoside): 80–90%
O=C(O)c1ccccc1O [Salicylic acid] | 85.0 (80–90) % | – | –
Nc1ccc(S(=O)(=O)Nc2ncccn2)cc1 [Sulfadiazine] | 43.0 (38–48) % | 1.88 min | –
Cc1cc(C)nc(NS(=O)(=O)c2ccc(N)cc2)n1 [Sulfadimidine] | 80.0% | 6.22 min | –
CCC(=O)O[C@H]1CC[C@H]2[C@@H]3CCC4=CC(=O)CC[C@]4(C)[C@H]3CC[C@]12C [Testosterone propionate] | 98.0% | – | Retention time ([3]; human): 0.74 min
COc1cc(C(=O)O)ccc1O [Vanillic acid] | 56.3% | – | Retention time ([3]; human, 100 µg/mL): 3.11 min
CCN(CC)CCOc1ccc(C(=C(Cl)c2ccccc2)c2ccccc2)cc1 [clomifene citrate] | – | > 240 min | –
